Structures are written as SMILES. Read-outs that look alike come from different tables or passages of the source.

In one assay the test system is Molm-13 cells. The assay is described as follows: Leukemia cell proliferation inhibition test (ATPlite), Molm-13. It counts as cell-based. Particulars: Homo sapiens, read-out: MOLM13 cell proliferation inhibition effect. In outline: (§1)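 Molm-13 or MV4-11 cells at 10,000 cells/well in RPMI with 10% FBS and pen/strep were exposed to serially diluted compound for 72 h at 37 °C, 5% CO2. Total cellular ATP was read by luciferase luminescence. GI50 was taken relative to 0.1% DMSO control, from duplicates by sigmoid non-linear regression.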
(In ATP-based viability assays light output follows the ATP content of the culture.)

Assay [1] addresses T1, human FLT3 protein (FLT3 (WT)) (Homo sapiens, UniProt P36888).
T1 construct: human FLT3 protein (intracellular region, 564 to 993 aa); GST; purchased Carna Biosciences; host or cells: baculovirus expression system
T1 sequence (P36888 564-993): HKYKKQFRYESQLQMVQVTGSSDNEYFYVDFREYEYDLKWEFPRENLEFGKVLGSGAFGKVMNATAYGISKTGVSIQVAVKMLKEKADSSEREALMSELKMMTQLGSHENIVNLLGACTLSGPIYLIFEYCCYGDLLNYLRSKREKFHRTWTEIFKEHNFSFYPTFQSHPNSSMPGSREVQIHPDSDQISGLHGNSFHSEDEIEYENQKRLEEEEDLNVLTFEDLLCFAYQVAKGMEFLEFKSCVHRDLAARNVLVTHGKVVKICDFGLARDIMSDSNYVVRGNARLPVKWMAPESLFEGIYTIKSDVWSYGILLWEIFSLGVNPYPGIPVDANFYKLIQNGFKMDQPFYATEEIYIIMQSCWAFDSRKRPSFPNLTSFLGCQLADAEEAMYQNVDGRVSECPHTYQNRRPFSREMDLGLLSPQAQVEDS
In words: FLT3 inhibition test (FLT3 enzyme inhibition, time-resolved fluorescence of substrate peptide phosphorylation). To be noted: read-out: FLT3 (WT) enzyme inhibition activity. It is filed as biochemical. The gist of the method:
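Wild-type human FLT3 (1.2 μg) pre-incubated with compound 15 min at 25° C in 100 mM HEPES pH 7.5, 10 mM MgCl2, 25 mM NaCl, 1 mM DTT. Reaction started with substrate peptide and ATP (final 50 μM), run 30 min at 25° C; phosphorylation read by time-resolved fluorescence.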

For another assay, the system named is MV4-11 cells. In words: Leukemia cell proliferation inhibition test (ATPlite), MV4-11. It counts as cell-based. Particulars: Homo sapiens, read-out: MV4-11 cell proliferation inhibition effect. In outline: as §1
[2] abbreviates: MOLM-13, 72 h, Molm-13, 72 hours culture, ATPlite, GI50 per method.
Setting [3] is: GST-fused human FLT3 (564 to 993 aa), ATP 50 μM.
The mark [4] stands for this setting: MV4-11, 72 h, MV4-11, 72 hours culture, ATPlite, GI50 per method.

With `CCCNc1nc(Nc2ccnc(F)c2)ncc1C#C[C@@H]1CCC[C@H](NC(=O)[C@H](C)N(C)C(=O)/C=C/CN(C)C)C1` [Compound 14-1, (E)-4-(dimethylamino)-N—((S)-1-(((1S,3R)-3-((2-((2-fluoropyridin-4-yl)amino)-4-(propylamino)pyrimidin-5-yl)ethynyl)cyclohexyl)amino)-1-oxopropan-2-yl)-N-methyl-2-butenamido], the IC50 (in the assay with Molm-13 cells (setting [2]); in assay [1] (setting [3]); with MV4-11 cells (setting [4])) was below 10 nM in each case.

Turning to `CCCNc1nc(Nc2ccc3c(cnn3CCOC)c2)ncc1C#CCCCNC(=O)[C@H](C)N(C)C(=O)/C=C/CN(C)C` [Compound 22-10], the IC50 in the assay on Molm-13 cells (MOLM-13, MOLM13 cell) is below 10 nM; in assay [1] (FLT3 (WT)), below 10 nM; in the assay on MV4-11 cells (MV4-11, MV4-11 cell), below 10 nM.

Take `C[C@@H](C(=O)NCCCC#Cc1cnc(Nc2ccc3cnn(C)c3c2)nc1NC1CC1)N(C)C(=O)/C=C/CN(C)C` [Compound 10-58]: the IC50 (in the assay on Molm-13 cells (setting [2]); in assay [1] (setting [3]); with MV4-11 cells (setting [4])) was below 10 nM throughout.

Regarding `COc1ccc(Nc2nc(Nc3ccc(F)cc3)ncc2C#CCCCNC(=O)[C@H](C)N(C)C(=O)/C=C/CN(C)C)cn1` [Compound 10-40], the IC50 (in the assay on Molm-13 cells (setting [2]); in assay [1] (setting [3]); in the assay on MV4-11 cells (setting [4])) was below 10 nM throughout.

On to `CN(C)C/C=C/C(=O)N(C)CC(=O)NCCCC#Cc1cnc(Nc2ccc(F)cc2)nc1NCC1CCOCC1` [Compound 10-18], for which the IC50 (in the assay with Molm-13 cells (setting [2]); in assay [1] (setting [3]); in the assay on MV4-11 cells (setting [4])) was below 10 nM each time.

For `CNc1nc(Nc2cccc(F)c2)ncc1C#CCCCNC(=O)[C@@H]1C[C@H](O)CN1C(=O)/C=C/CN(C)C` [Compound 7-74], the IC50 (with Molm-13 cells (setting [2]); in assay [1] (setting [3]); in the assay on MV4-11 cells (setting [4])) was below 10 nM each time.

With `CCCNc1nc(Nc2ccc(C#N)cc2)ncc1C#CCCC(=O)NC(C)(C)CN(C)C(=O)/C=C/CN(C)C` [Compound 8-16], the IC50 in the assay on Molm-13 cells (setting [2]) lay within 100 to 1000 nM; in assay [1] (setting [3]), 10 to 100 nM; in the assay on MV4-11 cells (setting [4]), 10 to 100 nM.

In the case of `CNc1nc(Nc2ccc(OC)c(F)c2)ncc1C#CCCCNC(=O)[C@@H]1CCCN1C(=O)/C=C/CN(C)C` [Compound 21-42], the IC50 with Molm-13 cells (MOLM-13, MOLM13 cell) was below 10 nM; in assay [1] (FLT3 (WT)), below 10 nM; in the assay on MV4-11 cells (MV4-11, MV4-11 cell), below 10 nM.

Consider `C=CC(=O)NCC(=O)Nc1cccc(NC(=O)c2cnc(NCCc3ccncc3)nc2NCCC)c1` [Compound 2-1, N-(3-(2-(acrylylamido)acetamido)phenyl)-4-(propylamino)-2-((2-(pyridin-4-yl)ethyl)amino)pyrimidine-5-carboxamide], for which the IC50 is 10 to 100 nM in the assay with Molm-13 cells (Molm-13, 72 hours culture, ATPlite, GI50 per method); below 10 nM in assay [1] (setting [3]); 10 to 100 nM in the assay with MV4-11 cells (MV4-11, 72 hours culture, ATPlite, GI50 per method).

As to `CCCNc1nc(Nc2ccc3cn(C)nc3c2)ncc1C#CCCCNC(=O)[C@H](C)N(C)C(=O)/C=C/CN(C)C` [Compound 21-10], the IC50 in the assay on Molm-13 cells (setting [2]) is 10 to 100 nM; in assay [1] (setting [3]), below 10 nM; in the assay with MV4-11 cells (setting [4]), 10 to 100 nM.

In the case of `CCCNc1nc(NCCc2ccncc2)ncc1C#Cc1cccc(NC(=O)[C@H](C)N(C)C(=O)/C=C/CN(C)C)c1` [Compound 8-6], the IC50 (in the assay on Molm-13 cells (setting [2]); in assay [1] (setting [3]); with MV4-11 cells (setting [4])) was below 10 nM each time.

On to `CCCNc1nc(Nc2cccc(F)c2)ncc1C#C[C@@H]1CCC[C@H](NC(=O)[C@H](C)N(C)C(=O)/C=C/CN(C)C)C1` [Compound 13-1, (E)-4-(dimethylamino)-N—((S)-1-(((1S,3R)-3-((2-((3-fluorophenyl)amino)-4-(propylamino)pyrimidin-5-yl)ethynyl)cyclohexyl)amino)-1-oxopropan-2-yl)-N-methyl-2-butenamide], for which the IC50 (in the assay on Molm-13 cells (setting [2]); in assay [1] (setting [3]); in the assay with MV4-11 cells (setting [4])) was below 10 nM each time.

In the case of `C=CC(=O)N(C)CC(=O)NCCCNC(=O)c1cnc(Nc2ccc(C(N)=O)cc2)nc1NCCC` [Compound 5-2], the IC50 with Molm-13 cells (setting [2]) is 10 to 100 nM; in assay [1] (setting [3]), below 10 nM; with MV4-11 cells (setting [4]), 10 to 100 nM.

Take `C=CC(=O)NCC(=O)NCCCNC(=O)c1cnc(NCCc2ccncc2)nc1NCCC` [Compound 2-2, N-(3-(2-(acrylylamido)actamido)propyl)-4-(propylamino)-2-((2-(pyridin-4-yl)ethyl)amino)pyrimidine-5-carboxamide]: the IC50 in the assay with Molm-13 cells (setting [2]) is 10 to 100 nM; in assay [1] (setting [3]), below 10 nM; in the assay with MV4-11 cells (setting [4]), 10 to 100 nM.

Turning to `C[C@@H](C(=O)NCCCC#Cc1cnc(Nc2cccc(F)c2)nc1NCCc1cccs1)N(C)C(=O)/C=C/CN(C)C` [Compound 10-9], the results for the IC50 (in the assay on Molm-13 cells (setting [2]); in assay [1] (setting [3]); in the assay with MV4-11 cells (setting [4])) were 10 to 100 nM, below 10 nM and 10 to 100 nM, respectively.

For `CCCN(C)c1nc(Nc2cccc(F)c2)ncc1C#CCCCNC(=O)[C@H](C)N(C)C(=O)/C=C/CN(C)C` [Compound 9-5], the IC50 in the assay on Molm-13 cells (setting [2]) is 10 to 100 nM; in assay [1] (setting [3]) it was below 10 nM; in the assay with MV4-11 cells (setting [4]), 10 to 100 nM.

With `CNc1ncc(C#C[C@@H]2CCC[C@H](NC(=O)[C@H](C)N(C)C(=O)/C=C/CN(C)C)C2)c(NCc2ccccc2)n1` [Compound 21-39], the IC50 was below 10 nM in the assay on Molm-13 cells (MOLM-13, MOLM13 cell); below 10 nM in assay [1] (FLT3 (WT)); below 10 nM in the assay with MV4-11 cells (MV4-11, MV4-11 cell).

Regarding `CCCNc1nc(Nc2ccc(C(N)=O)cc2)ncc1C(=O)Nc1cccc(NC(=O)[C@H](C)N(C)C(=O)/C=C/CN(C)CC)c1` [Compound 4-3], the IC50 (in the assay on Molm-13 cells (setting [2]); in assay [1] (setting [3]); with MV4-11 cells (setting [4])) was below 10 nM in each case.

As for `CCCNc1nc(Nc2ccc(C(N)=O)cc2)ncc1C(=O)Nc1cccc(NC(=O)[C@H](C)NC(=O)/C=C/CN(C)C)c1` [Compound 3-12], the IC50 is 10 to 100 nM in the assay with Molm-13 cells (setting [2]), below 10 nM in assay [1] (setting [3]) and 10 to 100 nM in the assay with MV4-11 cells (setting [4]).

As to `C[C@@H](C(=O)NCCCC#Cc1cnc(Nc2ccc(C(N)=O)cc2)nc1N1CCCC1)N(C)C(=O)/C=C/CN(C)C` [Compound 9-7], the IC50 (with Molm-13 cells (setting [2]); in assay [1] (setting [3]); in the assay on MV4-11 cells (setting [4])) was below 10 nM throughout.

For the molecule `CCCNc1nc(Nc2ccc(OC)nc2)ncc1C#CCCCNC(=O)[C@H](C)N(C)C(=O)/C=C/CN(C)C` [Compound 7-23], the IC50 was 10 to 100 nM with Molm-13 cells (setting [2]), below 10 nM in assay [1] (setting [3]) and below 10 nM with MV4-11 cells (setting [4]).

`CCCNc1nc(Nc2ccc(C(N)=O)cc2)ncc1C(=O)NCCCNc1ncccc1NC(=O)/C=C/CN(C)C` [Compound 3-29]: the figures for the IC50 (in the assay on Molm-13 cells (setting [2]); in assay [1] (setting [3]); in the assay with MV4-11 cells (setting [4])) were 10 to 100 nM, below 10 nM and 10 to 100 nM, respectively.

`C=CC(=O)NCC(=O)Nc1cc(NC(=O)c2cnc(NCCc3ccncc3)nc2NCCC)c(C)cc1C` [Compound 2-6]: the IC50 (in the assay on Molm-13 cells (setting [2]); in assay [1] (setting [3]); in the assay with MV4-11 cells (setting [4])) was 10 to 100 nM each time.

Consider `CNc1nc(Nc2ccc(F)cc2)ncc1C#CCCCNC(=O)[C@@H]1C[C@H](C)CN1C(=O)/C=C/CN(C)C` [Compound 7-92], for which the IC50 (in the assay with Molm-13 cells (setting [2]); in assay [1] (setting [3]); with MV4-11 cells (setting [4])) was below 10 nM in each case.

For the molecule `CCCNc1nc(Nc2ccc3ncccc3c2)ncc1C#CCCCNC(=O)[C@H](C)N(C)C(=O)/C=C/CN(C)C` [Compound 22-2], the IC50 with Molm-13 cells (MOLM-13, MOLM13 cell) is below 10 nM; in assay [1] (FLT3 (WT)), below 10 nM; in the assay on MV4-11 cells (MV4-11, MV4-11 cell), below 10 nM.

With `CCCNc1nc(Nc2cncc(Cl)c2)ncc1C#CCCCNC(=O)[C@H](C)N(C)C(=O)/C=C/CN(C)C` [Compound 22-9], the IC50 in the assay on Molm-13 cells (MOLM-13, MOLM13 cell) was 10 to 100 nM; in assay [1] (FLT3 (WT)) it was below 10 nM; with MV4-11 cells (MV4-11, MV4-11 cell), 10 to 100 nM.

Values taken from US9145415B2, “Nitrogen-containing heterocyclic compound or salt thereof” (FUJIFILM Corporation, priority 2012, dated 2015).
